Reference: ChEMBL document CHEMBL5608211, “Antibody-drug conjugates for targeted cancer therapy: Recent advances in potential payloads” (Eur J Med Chem, 2024)
Starred links: 1 amine or outer side, 2 acyl side, 3 side chain; linkers in the order of their positions; H or OH if unused. Positions of bridges follow the written chain, without caps; N, C: chain ends. Non-standard residues stand in square brackets, D forms with d. Residues, ends and D or L forms follow the SMILES beside them. *: point of attachment. X7 = C[C@H]([C@H](N[*:3])C(=O)C[C@@H](Cc1c([*:2])[nH]c2cc(O)ccc12)C(=O)[*:1])[C@@H](O)CO; Dolaproine = CO[C@@H]([C@@H]1CCCN1)[C@@H](C)C(=O)O; X1 = O=C([C@]1(N[*:1])C[C@@H]1c1ccccc1)[*:2]; Dil = CC[C@H](C)[C@H](NC)[C@@H](CC(=O)O)OC; X3 = CCOP(=O)(OCC)[C@@H](N[*:1])C(=O)[*:2]; Pro(4R-NH2) = N[C@H]1CN[C@H](C(=O)O)C1; NMeV = CN[C@H](C(=O)O)C(C)C; X5 = c1ccc(COC2CON(*)C2)cc1; X2 = c1ccc2c(c1)CON(*)C2; X4 = C1=CC2CCC1ON2*

Tests used:
HT-29 [1] = assay: Antiproliferative activity against human HT-29 cells incubated for 48 to 96 hrs by MTT assay; type: functional, cell-based
786-0 = assay: Antiproliferative activity against human 786-0 cells incubated for 48 to 96 hrs by MTT assay; type: functional, cell-based
[2] = Inhibition of RNA polymerase II phosphorylation in human HeLa cells by Western blot analysis; type: cell-based
[3] = Cytotoxicity against human L540cy cells assessed as reduction in cell growth incubated for 4 days by CellTiter-Glo luminescent assay; type: functional, cell-based; settings: 96 h
[4] = Apparent permeability across basolateral to apical side in human Caco-2 cells incubated for 2 hrs by HPLC-MS analysis; type: ADME, cell-based
HT-29 [5] = assay: Antiproliferative activity against human HT-29 cells assessed as inhibition of cell growth incubated for 48 to 96 hrs by MTT assay; type: functional, cell-based
CCRF-CEM = assay: Cytotoxicity against human CCRF-CEM cells; type: functional, cell-based
Tubulin = assay: Displacement of fluorescent Maytansine probe from tubulin (unknown origin) assessed as dissociation constant by competitive binding based fluorescence anisotropy; type: protein-complex assay, Homo sapiens
MOLM-13 = assay: Growth inhibition of human MOLM-13 cells incubated for 5 days by PrestoBlue reagent assay; type: functional; settings: MOLM-13, 120 h, time 5 day
DLD-1 = assay: Antiproliferative activity against human DLD-1 cells assessed as inhibition of cell growth incubated for 3 to 4 days; type: functional, cell-based
KARPAS-299 = assay: Cytotoxicity against human KARPAS-299 cells incubated for 96 hrs by Alamar blue assay; type: functional, cell-based; settings: KARPAS-299, 96 h
HepG2 = assay: Cytotoxicity against human HepG2 cells assessed as inhibition of cell growth incubated for 72 hrs by fluorometric assay; type: functional, cell-based; settings: HepG2, 72 h
BT-474 = assay: Antiproliferative activity against human BT-474 cells assessed as inhibition of cell growth incubated for 4 days by WST-8 assay; type: functional, cell-based; settings: BT-474, 96 h
A2780 = assay: Cytotoxicity against human A2780 cells assessed as inhibition of cell growth incubated for 72 hrs by MTT assay; type: functional, cell-based; settings: A2780, 72 h
HT-29 [6] = assay: Antiproliferative activity against human HT-29 cells assessed as inhibition of cell growth incubated for 72 hrs by coulter counter method; type: functional, cell-based; settings: HT-29, 72 h

Q: For `CC[C@H](C)[C@@H]([C@@H](CC(=O)N1CCC[C@H]1[C@H](OC)[C@@H](C)C(=O)N[C@@H](Cc1ccccc1)C(=O)N1CC(OCc2ccccc2)CO1)OC)N(C)C(=O)[C@@H](NC(=O)[C@@H](NC)C(C)C)C(C)C` (some centres not stated) (H-[NMeV]V[Dil][Dolaproine]F-X5), which IC50 (HT-29 [1]) is on record?
A: The IC50 was 0.5 nM.

Q: What about the IC50 (786-0) of the same molecule?
A: The IC50 was 0.5 nM.

Q: For `CC[C@H](C)[C@@H]1NC(=O)CNC(=O)[C@H]2CC(=O)[C@H]([C@@H](C)[C@@H](O)CO)NC(=O)[C@@H]3C[C@@H](N)CN3C(=O)[C@H](CC(N)=O)NC(=O)[C@H](CSc3[nH]c4cc(O)ccc4c3C2)NC(=O)CNC1=O` (GIGCN[Pro(4R-NH2)]; linker N-4-C via X7), which IC50 [2] is on record?
A: Its IC50 is 550 nM.

Q: Which IC50 (HT-29 [1]) does the source give for `CC[C@H](C)[C@@H]([C@@H](CC(=O)N1CCC[C@H]1[C@H](OC)[C@@H](C)C(=O)N[C@@]1(C(=O)N2Cc3ccccc3CO2)C[C@@H]1c1ccccc1)OC)N(C)C(=O)[C@@H](NC(=O)[C@@H](NC)C(C)C)C(C)C` (H-[NMeV]V[Dil][Dolaproine][X1]-X2) here?
A: Its IC50 is 0.5 nM.

Q: What about the IC50 (786-0) of the same molecule?
A: The IC50 was 0.5 nM.

Q: With `CC[C@H](C)[C@@H]1NC(=O)CNC(=O)[C@H]2CC(=O)[C@H]([C@@H](C)[C@@H](O)CO)NC(=O)[C@@H]3C[C@@H](C#N)CN3C(=O)[C@H](CC(N)=O)NC(=O)[C@H](CSc3[nH]c4cc(O)ccc4c3C2)NC(=O)CNC1=O` as the molecule, how does the IC50 [2] read?
A: The IC50 was 480 nM.

Q: For `Nc1cccc(C(=O)N2CCC(CCCCNC(=O)/C=C/c3cccnc3)CC2)c1`, which EC50 [3] is on record?
A: The EC50 was 6.3 nM.

Q: What does the source list for `CCOP(=O)(OCC)[C@@H](NC(=O)[C@H](C)[C@@H](OC)[C@@H]1CCCN1C(=O)C[C@@H](OC)[C@H]([C@@H](C)CC)N(C)C(=O)[C@@H](NC(=O)[C@@H](NC)C(C)C)C(C)C)C(=O)N1OC2C=CC1CC2` (some centres not stated) (H-[NMeV]V[Dil][Dolaproine][X3]-X4)?
A: IC50 (HT-29 [1]): 0.5 nM; IC50 (786-0): 0.5 nM

Q: Which Papp B→A at 2 h [4] does the source give for `CC[C@H](C)[C@@H]([C@@H](CC(=O)N1CCC[C@H]1[C@H](OC)[C@@H](C)C(=O)N[C@H](Cc1ccccc1)c1nnc(-c2ccccc2)o1)OC)N(C)C(=O)[C@@H](NC(=O)[C@H](C(C)C)N(C)CCCC(=O)O)C(C)C` here?
A: The Papp B→A at 2 h was 4.5 ×10⁻⁶ cm/s.

Q: What about the IC50 (HT-29 [5]) of the same molecule?
A: Its IC50 is 0.1 nM.

Q: With `COc1ccc(C[C@H]2NC(=O)/C=C/C[C@@H]([C@H](C)[C@@H](O)[C@@H](Cl)c3ccccc3)OC(=O)[C@H](CC(C)C)OC(=O)C(C)(C)CNC2=O)cc1Cl` as the molecule, how does the IC50 (CCRF-CEM) read?
A: Its IC50 is 0.027 nM.

Q: With `COc1cc2cc(c1Cl)N(C)C(=O)C[C@H](OC(=O)[C@H](C)N(C)C(C)=O)[C@]1(C)O[C@H]1[C@H](C)[C@@H]1C[C@@](O)(NC(=O)O1)[C@H](OC)/C=C/C=C(\C)C2` [MAYTANSINE] as the molecule, how does the Kd (Tubulin) read?
A: The Kd was 14 nM.

Q: With `CC[C@H](C)[C@@H]([C@@H](CC(=O)N1C[C@@H](N)C[C@H]1[C@H](OC)[C@@H](C)C(=O)N[C@@H](Cc1ccccc1)C(=O)OC)OC)N(C)C(=O)[C@@H](NC(=O)[C@H](C(C)C)N(C)C)[C@H](C)N=[N+]=[N-]` as the molecule, how does the GI50 (MOLM-13) read?
A: Its GI50 is 0.057 nM.

Q: Which IC50 (DLD-1) does the source give for `C=C1C[C@@H]2CC[C@@]34C[C@H]5O[C@H]6[C@@H](O3)[C@H]3O[C@H](CC[C@@H]3O[C@H]6[C@H]5O4)CC(=O)C[C@@H]3[C@@H](OC)[C@@H](C[C@H](O)CN)O[C@H]3C[C@H]3O[C@@H](CC[C@@H]1O2)C[C@@H](C)C3=C` [ERIBULIN] here?
A: The IC50 was 13 nM.

Q: Which IC50 (CCRF-CEM) does the source give for `COc1ccc(C[C@H]2NC(=O)/C=C/C[C@@H]([C@H](C)[C@H]3O[C@@H]3c3ccc(F)cc3)OC(=O)[C@H](CC(C)C)OC(=O)C(C)(C)CNC2=O)cc1Cl` here?
A: Its IC50 is 0.033 nM.

Q: Which IC50 (KARPAS-299) does the source give for `CC[C@H](C)[C@@H]([C@@H](CC(=O)N1CCC[C@H]1[C@H](OC)[C@@H](C)C(=O)N[C@H](Cc1ccccc1)C(=O)OC)OC)N(C)C(=O)[C@@H](NC(=O)c1ccc(N)cc1)C(C)C` here?
A: The IC50 was 0.12 nM.

Q: Which IC50 (HepG2) does the source give for `CC[C@H](C)[C@@H]([C@@H](CC(=O)N1C[C@@H](NC(=O)OC(C)(C)C)C[C@H]1[C@H](OC)[C@@H](C)C(=O)NCCc1c(F)cccc1F)OC)N(C)C(=O)[C@@H](NC(=O)[C@H](C(C)C)N(C)C)C(C)C` here?
A: Its IC50 is 0.13 nM.

Q: With `CC[C@H](C)[C@@H]([C@@H](CC(=O)N1C[C@@H](N)C[C@H]1[C@H](OC)[C@@H](C)C(=O)NCCc1c(F)cccc1F)OC)N(C)C(=O)[C@@H](NC(=O)[C@H](C(C)C)N(C)C)C(C)C` as the molecule, how does the IC50 (BT-474) read?
A: Its IC50 is under 0.4 nM.

Q: For `COc1cc2cc(c1Cl)N(C)C(=O)C[C@H](OC(=O)c1ccccc1)[C@@]1(C)O[C@H]1[C@H](C)[C@@H]1C[C@@](O)(NC(=O)O1)[C@H](OC)/C=C/C=C(\C)C2`, which Kd (Tubulin) is on record?
A: Its Kd is 51 nM.

Q: What about the IC50 (A2780) of the same molecule?
A: The IC50 was 0.11 nM.

Q: With `CC[C@H](C)[C@H](NC(=O)[C@H]1CCCCN1C)C(=O)N(CC1CC1)[C@H](C[C@@H](OC(C)=O)c1nc(C(=O)N[C@@H](Cc2ccccc2)C[C@H](C)C(=O)O)cs1)C(C)C` as the molecule, how does the IC50 (HT-29 [6]) read?
A: The IC50 was 0.055 nM.
